# Patent US20130287807A1, “COMPOUNDS FOR TREATING SYMPTOMS ASSOCIATED WITH PARKINSON'S DISEASE” (priority 2008, published 2013)
# Square brackets hold non-standard residues; d marks the D form. Ends that are not written are not given here. pGlu = O=C1CC[C@@H](C(=O)O)N1
# Columns and labels:
# p4373 = assay: Mimotope vaccination, serum ELISA against p4373; type: in vivo, C57/B16 mice; details: peptide-KLH vaccines with alum; FIG. 16
# Description: (§1) Inhibiting as well as non-inhibiting peptides were coupled to KLH and injected into mice (wildtype C57/B16 mice; subcutaneous injection into the flank) together with an appropriate adjuvant (aluminium hydroxide). Animals were vaccinated 3-6 times in biweekly intervals and sera were taken biweekly as well. Titers to injected peptides, as well as to an irrelevant peptide were determined with every serum. Furthermore, titers against the recombinant human Aβ protein, and against original peptides were determined respectively. In general sera were analysed by reaction against peptides coupled to Bovine Serum Albumin (BSA) and recombinant full length proteins which were immobilised on ELISA plates. Titers were determined using anti mouse IgG specific antibodies. For detailed results see FIGS. 15, 16 and 17 respectively and FIGS. 23, 24 and 25 respectively.
# (§2) Female C57/b16 mice, 5-6 mice per group, were subcutaneously immunized with 30 μg peptide coupled to KLH. Control groups were administered original epitope-KLH conjugates respectively. As adjuvant alum was used (always 1 mg per mouse). […] The in vitro ELISA assay to determine the antibody titer was performed with sera of single mice after each vaccination in a two week interval (see FIGS. 15 and 16 respectively). The wells of the ELISA plate were coated with mimotope-BSA conjugate and an irrelevant peptide-BSA conjugate (negative control). […]
# [1] = system: monoclonal antibody MV-003; assay: In vitro binding assay (ELISA), BSA-coupled peptides, parental antibody MV-003; design: species or system BalbC mice; details: Table 1A; peptide-BSA on plate, compared to original epitope
# Description: Peptides derived from Phage Display as well as variants thereof were coupled to BSA and bound to ELISA plates (1 μM; as indicated in the respective figures) and subsequently incubated with the monoclonal antibody that was used for the screening procedure to analyse binding capacity of identified peptides.
# Legend to Table 1A: the binding capacity is coded by the following binding code: 1:X describes the dilution factor of the parental AB.
# [2] = system: monoclonal antibody MV-003; assay: In vitro inhibition assay (ELISA), MV-003 binding to original epitope; design: species or system BalbC mice; details: Table 2A; OD at 10 ug peptide compared to original peptide
# Description: Different amounts of peptides (concentrations ranging from 10 μg to 0.08 μg; serial dilutions; for MV-002: concentrations ranging from 5 μg to 0.03 μg; serial dilutions), derived from Phage Display were incubated with the monoclonal antibody that was used for the screening procedure. Peptides diminishing subsequent binding of the antibody to the original epitope coated on ELISA plates were considered as inhibiting in this assay.
# Legend to Table 2A: the inhibition capacity is coded by the following code: Weak inhibition means more peptide is required to lower AB binding than with the original epitope; strong inhibition means similar peptide amounts are required for mimotope and original epitope for lowering AB binding. Mimotopes are compared to the original peptide as standard. OD at 10 ug peptide used in the assay is used to calculate the competition capacity compared to original peptide.
# amyloid plaques = assay: Tg2576 AD mouse model: area occupied by amyloid plaques after mimotope vaccination; type: in vivo, Tg2576 mice; details: FIG. 18 Gr2 p4381, Gr3 p4390, Gr4 p4715, FIG. 26 Gr2 p4675, FIG. 19 Gr2 p4395
# [3] = system: Aβ/truncated/modified forms; assay: In vivo characterisation of mimotopes: detection of Aβ/truncated/modified forms; design: species or system C57/B16 mice; key: +: All peptides listed in Table 5 mount specific immune reactions against full length and/or truncated and modified forms of Aβ or fragments thereof; details: Table 5, MV-003 derived mimotopes
# Description: as §1
# (§3) Female C57/b16 mice, 5-6 mice per group, were subcutaneously immunized with 30 μg peptide coupled to KLH. Control groups were administered original epitope-KLH conjugates respectively. As adjuvant alum was used (always 1 mg per mouse). […] The in vitro ELISA assay to determine the antibody titer was performed with sera of single mice after each vaccination in a two week interval (see FIGS. 15 and 16 respectively). The wells of the ELISA plate were coated with mimotope-BSA conjugate and an irrelevant peptide-BSA conjugate (negative control). The positive control was performed by reaction of the parental antibody with the respective mimotope-BSA conjugate. The detection was performed with anti-mouse IgG. Additionally, recombinant proteins were immobilised on ELISA plates and sera reacted accordingly. FIGS. 15 to 17 show representative examples for assays used to characterise mimotopes in vivo.
# as §3, with “FIGS. 25” for “FIGS. 15”, “and 26” for “and 16”, “respectively). Titers were calculated as OD max/2 in all figures shown.” for “respectively).”, “FIGS. 23, 24 and 25” for “FIGS. 15 to 17”
# p4371 = assay: Mimotope vaccination, serum ELISA against p4371; type: in vivo, C57/B16 mice; details: peptide-KLH vaccines with alum; FIG. 16
# Description: as §1, §2
# [4] = biological target: monoclonal antibody MV-004; assay: ELISA on peptide-BSA; code 3 = strong binding, OD halfmax 1:>96000
# [5] = biological target: monoclonal antibody MV-004; assay: inhibition ELISA, competitor coated original epitope p4372; code 2 = strong inhibition (as original epitope)
# [6] = biological target: monoclonal antibody MV-003; assay: ELISA on peptide-BSA; code 3 = strong binding, OD halfmax 1:>60000
# [7] = biological target: monoclonal antibody MV-003; assay: inhibition ELISA, competitor coated original epitope p4373; code 1 = weaker than original epitope
# [8] = biological target: monoclonal antibody MV-003; assay: inhibition ELISA, competitor coated original epitope p4373; code 2 = strong inhibition (as original epitope)
molecule,measurement,setting,value
EFRHDS-C (EFRHDSC) [p4371],immune response / titers against p4373,p4373,mount relevant titers
IRWDTPC [p4395],Binding Capacity,[1],2 (medium binding :16-60000)
same,Inhibition Capacity,[2],1 (Weaker than original epitope (OD of 10 ug peptide below 12 times of original peptide))
same,average occupation (relative area occupied by amyloid deposits in the brain),"amyloid plaques; Tg2576, 6 s.c. injections monthly, peptide-KLH on ALUM, mAb 3A5 staining, cortex and hippocampus, control group 0.35%",0.21%
same,reduction of area occupied by amyloid plaques following mimotope treatment,amyloid plaques; versus PBS-ALUM control group,38%
same,Detection of Aβ/truncated/modified forms,[3],+
IRYDAPLC [p4397],Binding Capacity,[1],1 (weak binding :<16000)
same,Inhibition Capacity,[2],1 (Weaker than original epitope (OD of 10 ug peptide below 12 times of original peptide))
same,Detection of Aβ/truncated/modified forms,[3],+
VRWDVYPC [p4396],Binding Capacity,[1],1 (weak binding :<16000)
same,Detection of Aβ/truncated/modified forms,[3],+
"p(E)FRHDS-C ([pGlu]FRHDSC) [p4373, non-mimotope peptide, pyroglutamate-modified aa3-8 of Aβ]",immune response / titers against p4371,p4371,mount relevant titers
EVWHRLQC [p4419],OD halfmax 1:X (dilution factor of the parental antibody at half-maximal OD) (dilutionfactor(1:x)),[4],> 96000
same,OD at 10 ug peptide as multiple of OD with original peptide,[5],< 2 fold
IRWDQPC [p4756],dilution factor of the parental antibody at OD halfmax (1:X) (dilutionfactor(1:x)),[6],> 60000
same,OD at 10 ug peptide relative to OD of original peptide (inhibition ELISA),[7],5 to 12 fold
IRWDTSLC [p4728],dilution factor of the parental antibody at OD halfmax (1:X) (dilutionfactor(1:x)),[6],> 60000
same,OD at 10 ug peptide relative to OD of original peptide (inhibition ELISA),[8],< 5 fold
ERWHEKHC [p4418],OD halfmax 1:X (dilution factor of the parental antibody at half-maximal OD) (dilutionfactor(1:x)),[4],> 96000
same,OD at 10 ug peptide as multiple of OD with original peptide,[5],< 2 fold
